In patent publication US9469653B2, “Pharmaceutical compositions for preventing or treating degenerative brain disease and method of screening the same” (KOREA INSTITUTE OF SCIENCE AND TECHNOLOGY, priority 2011, dated 2016):

target: T1, human MAO-B enzyme (Homo sapiens (Human), UniProt P27338); experiment: Screening of MAO-B activity inhibition (Amplex Red monoamine oxidase assay kit, benzylamine substrate); format: biochemical; settings: 10 uM of the synthesized compound, pargyline-corrected
Experimental: A stock solution was prepared using a human MAO-B enzyme (purchased from Aldrich) and a Amplex® Red monoamine oxidase assay kit according to a preparation manual. The kit includes a 5× reaction buffer, an Amplex® red reagent (1 mg), HRP, DMSO, H2O2, p-tyramine (substrate of MAO-A, B), benzylamine (substrate of MAO-B), clorgiline (inhibitor of MAO-A), and pargyline (inhibitor of MAO-B). Among these reagents in the kit, benzylamine was used as a substrate for MAO-B, and pargyline was used as an MAO-B inhibitor. A solution as overall substrates was prepared as follows. 200 ul of a solution of 1 mg of Amplex® red sufficiently dissolved in 200 ul of DMSO, 100 ul of a mixed solution of HRP and 1 ml of a 1× buffer, 200 ul of a solution of benzylamine dissolved in 1.2 ml of dH2O were added to 9.5 ml of a 1× buffer to reach a total volume of 10 mL, which is sufficient for 100 wells. 0.5 ul of a mixture of MAO-B inhibitor pargyline and 1 ml of dH2O was put into each well. First, the activity of MAO-B was determined using 10 uM of the synthesized compound.
96 wells were injected with positive and negative types, and the wile type. The positive type included only substrate and hydrogen peroxide, and the negative type included only substrate. For the wild type, corresponding wells were injected with the enzyme, substrate, and MAO-B inhibitor, but with no synthesized compound. Afterward, 2 ul of the synthesized compound (1 mM) was added into each well, and the human MAO-B enzyme was put only into the 1st row of wells. 0.5 ug of the human MAO-B was put into each well along with 100 ul of a 1× buffer. The human MAO-B enzyme was put into the 2nd row of the wells along with 0.5 ul of a pargyline, the MAO-B inhibitor. To reduce an experimental error for accuracy, the test was repeated three times for each compound. After 30 minutes, 100 ul of the substrate solution was added into each well in a darkroom. The test was performed in the darkroom due to light sensitivity of the Amplex® reagent. Finally, a total volume of the reaction solution per well reached 200 ul. After about 2 to 3 hours, chromophoric degrees of the samples were measured. A variation in data values for the 1st and 2nd rows of the wells indicates the pure reaction activity of the MAO-B enzyme with the substrate. Using the samples with the synthesized compound the remaining activity of MAO-B after inhibited by the synthesized compound may be determined. This is because the activities of the other enzymes excluding the MAO-B enzyme may be excluded through this method. Compounds with high inhibitory activity at a concentration of 10 uM were screened from among the synthesized compounds at a compound concentration of 10 uM.

T1 sequence (P27338 whole entry): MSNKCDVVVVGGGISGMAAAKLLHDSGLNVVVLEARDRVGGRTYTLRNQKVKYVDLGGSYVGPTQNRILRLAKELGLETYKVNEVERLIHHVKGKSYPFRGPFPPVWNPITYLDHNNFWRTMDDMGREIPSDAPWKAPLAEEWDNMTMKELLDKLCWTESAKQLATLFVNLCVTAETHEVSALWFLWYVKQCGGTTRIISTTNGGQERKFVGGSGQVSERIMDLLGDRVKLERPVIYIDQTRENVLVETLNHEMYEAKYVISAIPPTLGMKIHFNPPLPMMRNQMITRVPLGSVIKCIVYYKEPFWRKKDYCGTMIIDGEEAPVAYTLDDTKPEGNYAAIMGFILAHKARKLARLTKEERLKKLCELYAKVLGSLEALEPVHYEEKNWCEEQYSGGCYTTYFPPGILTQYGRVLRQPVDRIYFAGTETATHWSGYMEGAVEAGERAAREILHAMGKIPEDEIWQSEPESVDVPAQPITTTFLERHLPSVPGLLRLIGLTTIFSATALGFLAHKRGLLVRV

Remaining activity of MAO-B (%) | SMILES
52.4% | COc1ccc(-c2nc3ccc(N(C)Cc4ccccc4)nc3o2)cc1 [Example 5-70, N-benzyl-2-(4-methoxyphenyl)-N-methyloxazolo[5,4-b]pyridine-5-amine]
55.4% | Clc1cccc(-c2nc3ccc(NCc4ccccc4)nc3o2)c1 [Example 5-60, N-benzyl-2-(3-chlorophenyl)oxazolo[5,4-b]pyridine-5-amine]
51% | CNc1ccc2nc(-c3ccccc3)oc2n1 [Example 5-73, N-methyl-2-phenyloxazolo[5,4-b]pyridine-5-amine]
4.4% | CNc1ccc2nc(-c3cccc(Cl)c3)oc2n1 [Example 5-76, 2-(3-chlorophenyl)-N-methyloxazolo[5,4-b]pyridine-5-amine]
43% | CN(Cc1ccccc1)c1ccc2nc(-c3cccc(F)c3)oc2n1 [Example 5-66, N-benzyl-2-(3-fluorophenyl)-N-methyloxazolo[5,4-b]pyridine-5-amine]
84.5% | CNc1ccc2nc(-c3ccc(OC)cc3)oc2n1 [Example 5-79, 2-(4-methoxyphenyl)-N-methyloxazolo[5,4-b]pyridine-5-amine]
84.1% | Cc1ccc(-c2nc3ccc(N(C)Cc4ccccc4)nc3o2)cc1 [Example 5-69, N-benzyl-N-methyl-2-p-tolyloxazolo[5,4-b]pyridine-5-amine]
42.7% | c1ccc(-c2nc3ccc(NCCN4CCOCC4)nc3s2)cc1 [Example 5-62, N-(2-morpholinoethyl)-2-phenylthiazolo[5,4-b]pyridine-5-amine]
4.14% | CNc1ccc2nc(-c3ccc(Cl)cc3)oc2n1 [Example 5-77, 2-(4-chlorophenyl)-N-methyloxazolo[5,4-b]pyridine-5-amine]
108.8% | CN(Cc1ccccc1)c1ccc2nc(-c3ccc(C#N)cc3)oc2n1 [Example 5-72]
101.2% | CN(Cc1ccccc1)c1ccc2nc(-c3ccc([N+](=O)[O-])cc3)oc2n1 [Example 5-71, N-benzyl-N-methyl-2-(4-nitrophenyl)oxazolo[5,4-b]pyridine-5-amine]
45.8% | CNc1ccc2nc(-c3ccc(C)cc3)oc2n1 [Example 5-78, N-methyl-2-p-tolyloxazolo[5,4-b]pyridine-5-amine]
27.2% | CNc1ccc2nc(-c3ccccc3)sc2n1 [Example 5-74, N-methyl-2-phenylthiazolo[5,4-b]pyridine-5-amine]
22% | CNc1ccc2nc(-c3cccc(F)c3)oc2n1 [Example 5-75, 2-(3-fluorophenyl)-N-methyloxazolo[5,4-b]pyridine-5-amine]
84.1% | CN(Cc1ccccc1)c1ccc2nc(-c3ccccc3Cl)oc2n1 [Example 5-65, N-benzyl-2-(2-chlorophenyl)-N-methyloxazolo[5,4-b]pyridine-5-amine]
11.1% | c1ccc(-c2nc3ccc(NC4CCCCC4)nc3o2)cc1 [Example 5-80, N-cyclohexyl-2-phenyloxazolo[5,6-b]pyridine-5-amine]
53.2% | CN(Cc1ccccc1)c1ccc2nc(-c3ccccc3)oc2n1 [Example 5-63, N-benzyl-N-methyl-2-phenyloxazolo[5,4-b]pyridine-5-amine]
47.8% | CN(Cc1ccccc1)c1ccc2nc(-c3ccccc3)sc2n1 [Example 5-64, N-benzyl-N-methyl-2-phenylthiazole[5,4-b]pyridine-5-amine]
46.4% | Clc1ccc(-c2nc3ccc(NCc4ccccc4)nc3o2)cc1 [Example 5-61, N-benzyl-2-(4-chlorophenyl)oxazolo[5,4-b]pyridine-5-amine]

More lines, now with the values behind:

SMILES | Remaining activity of MAO-B (%)
c1ccc(-c2nc3ccc(N4CCCCCC4)nc3o2)cc1 [Example 5-54, 5-(azepane-1-yl)-2-phenyloxazolo[5,4-b]pyridine] | 57.5%
Clc1cccc(-c2nc3ccc(N4CCCC4)nc3o2)c1 [Example 5-33, 2-chlorophenyl-5-(pyrrolidine-1-yl)oxazolo[5,4-b]pyridine] | 14.2%
Clc1ccc(-c2nc3ccc(N4CCCC4)nc3o2)cc1 [Example 5-35, 2-chlorophenyl-5-(pyrrolidine-1-yl)oxazolo[5,4-b]pyridine] | 42.4%
Clc1ccc(-c2nc3ccc(N4CCCCC4)nc3o2)cc1 [Example 5-46] | 56.0%
Clc1cccc(-c2nc3ccc(NC4CCCCC4)nc3o2)c1 [Example 5-53, 2-(3-chlorophenyl)-N-cyclohexyloxazolo[5,4-b]pyridine-5-amine] | 39.3%
Clc1cccc(-c2nc3ccc(NC4CCCC4)nc3o2)c1 [Example 5-51, 2-(3-chlorophenyl)-N-cyclopentyloxazolo[5,4-b]pyridine-5-amine] | 37.2%
Clc1ccccc1-c1nc2ccc(N3CCCC3)nc2o1 [Example 5-32, 2-chlorophenyl-5-(pyrrolidine-1-yl)oxazolo[5,4-b]pyridine] | 7.7%
Fc1ccc(-c2nc3ccc(N4CCCCC4)nc3o2)cc1 [Example 5-45, 2-(4-fluorophenyl)-5-(piperidine-1-yl)oxazolo[5,4-b]pyridine] | 26.5%
Fc1ccc(-c2nc3ccc(N4CCCCCC4)nc3o2)cc1 [Example 5-56, 5-(azepane-1-yl)-2-(4-fluorophenyl)oxazolo[5,4-b]pyridine] | 61.4%
c1ccc(-c2nc3ccc(N4CCCCCC4)nc3s2)cc1 [Example 5-55, 5-(azepane-1-yl)-2-phenylthiazolo[5,4-b]pyridine] | −1.8%
c1ccc(-c2nc3ccc(N4CCCCC4)nc3s2)cc1 [Example 5-38, 2-phenyl-5-(piperidine-1-yl)thiazolo[5,4-b]pyridine] | 1.8%
N#Cc1cccc(-c2nc3ccc(N4CCCCC4)nc3o2)c1 [Example 5-44, 3-(5-(piperidine-1-yl)oxazolo[5,4-b]pyridine-2-yl)benzonitrile] | 10.1%
N#Cc1ccc(-c2nc3ccc(N4CCCCC4)nc3o2)cc1 [Example 5-50, 4-(5-(piperidine-1-yl)oxazolo[5,4-b]pyridine-2-yl)benzonitrile] | 71.2%
COc1ccc(-c2nc3ccc(N4CCCCC4)nc3o2)cc1 [Example 5-49, 2-(4-methoxyphenyl)-5-(piperidine-1-yl)oxazolo[5,4-b]pyridine] | 15.8%
Brc1ccc(-c2nc3ccc(N4CCCC4)nc3o2)cc1 [Example 5-36] | 33.5%
Clc1cccc(-c2nc3ccc(N4CCCCC4)nc3o2)c1 [Example 5-41, 2-chlorophenyl-5-(piperidine-1-yl)oxazolo[5,4-b]pyridine] | 17%
Fc1cccc(-c2nc3ccc(NCc4ccccc4)nc3o2)c1 [Example 5-59, N-benzyl-2-(3-fluorophenyl)oxazolo[5,4-b]pyridine-5-amine] | 51.9%
c1ccc(CNc2ccc3nc(-c4ccccc4)oc3n2)cc1 [Example 5-57, N-benzyl-2-phenyloxazolo[5,4-b]pyridine-5-amine] | 63.1%
Cc1ccc(-c2nc3ccc(N4CCCCC4)nc3o2)cc1 [Example 5-48, 5-(piperidine-1-yl)-2-p-tolyloxazolo[5,4-b]pyridine] | 46.2%
c1ccc(-c2nc3ccc(NC4CCCCC4)nc3s2)cc1 [Example 5-52, N-cyclohexyl-2-phenylthiazolo[5,4-b]pyridine-5-amine] | 43%
O=[N+]([O-])c1cccc(-c2nc3ccc(N4CCCCC4)nc3o2)c1 [Example 5-43] | −21.5%
Cc1cccc(-c2nc3ccc(N4CCCCC4)nc3o2)c1 [Example 5-42, 5-(piperidine-1-yl)-2-m-tolyloxazolo[5,4-b]pyridine] | −7.8%

target: T1, human MAO-B enzyme; experiment: as above; format: biochemical; settings: activity assay at 0.001, 0.01, 0.1, 1 and 10 uM

IC50 | SMILES
2.99 µM | CNc1ccc2nc(-c3cccc(Cl)c3)oc2n1 [Example 5-76, 2-(3-chlorophenyl)-N-methyloxazolo[5,4-b]pyridine-5-amine]
3.02 µM | CNc1ccc2nc(-c3ccc(Cl)cc3)oc2n1 [Example 5-77, 2-(4-chlorophenyl)-N-methyloxazolo[5,4-b]pyridine-5-amine]
15.7 µM | CNc1ccc2nc(-c3ccccc3)sc2n1 [Example 5-74, N-methyl-2-phenylthiazolo[5,4-b]pyridine-5-amine]
9.86 µM | CNc1ccc2nc(-c3cccc(F)c3)oc2n1 [Example 5-75, 2-(3-fluorophenyl)-N-methyloxazolo[5,4-b]pyridine-5-amine]

More lines, now with the values behind:

SMILES | IC50
Clc1ccccc1-c1nc2ccc(N3CCCC3)nc2o1 [Example 5-32, 2-chlorophenyl-5-(pyrrolidine-1-yl)oxazolo[5,4-b]pyridine] | 112 µM
Fc1ccc(-c2nc3ccc(N4CCCCC4)nc3o2)cc1 [Example 5-45, 2-(4-fluorophenyl)-5-(piperidine-1-yl)oxazolo[5,4-b]pyridine] | 10.1 µM
c1ccc(-c2nc3ccc(N4CCCCC4)nc3s2)cc1 [Example 5-38, 2-phenyl-5-(piperidine-1-yl)thiazolo[5,4-b]pyridine] | 8.3 µM
COc1ccc(-c2nc3ccc(N4CCCCC4)nc3o2)cc1 [Example 5-49, 2-(4-methoxyphenyl)-5-(piperidine-1-yl)oxazolo[5,4-b]pyridine] | 1.52 µM
